Where a name gives a salt, the structure may show the parent alone.
Columns and labels:
[1] = system: K+ channels in SCG neurons; assay: Potassium current in superior cervical ganglion neurons (whole-cell voltage clamp); type: cell-based, rat
Description: (§1) Electrophysiological techniques were used to measure the effects of experimental compounds on voltage-gated Ca^2+, […] , and K^+ channels. […] Sodium and potassium channel currents were measured from acutely dissociated SCG neurons.
(§2) Dissociation of the neurons from the ganglia was accomplished using a 30 to 45 minute treatment in 0.25% trypsin, similar to methods outlined in Higgins, et al. (see Higgins D. et al. “Tissue culture of mammalian autonomic neurons.” In Banker G. and Goslin K. (Eds), Culturing Nerve Cells, Cambridge, Mass., MIT Press [1991]).
(§3) Ca^2+, Na^+, and K^+ channel currents in SCG neurons were measured using conventional single electrode whole-cell voltage-clamp techniques, outlined in Hamill et al., (see Hamill O. P. et al. “Improved patch-clamp techniques for high resolution current recordings from cells and cell-free membrane patches.”Pflugers Arch., 1981;391:85-100). For Ca^2+ channel experiments, the external bathing solution contained tetraethylammonium chloride (100 mM), choline chloride (52 mM), NaCl (15 mM), HEPES (10 mM), glucose (5.6 mM), CaCl2 (2 mM), and MgCl2 (0.8 mM), pH 7.35 with KOH; with the internal pipette solution containing cesium methane sulfonate (140 mM), EGTA (10 mM), and HEPES (10 mM), supplemented with 5 mM Mg^2+-ATP on the day of the experiment, pH 7.4 with CsOH. For Na^+ and K^+ channel experiments, the external bathing solution contained NaCl (150 mM), KCl (5 mM), MgCl2 (1.1 mM), CaCl2 (2.6 mM), Na-HEPES (10 mM), and glucose (10 mM), pH 7.4; with the internal pipette solution containing KCl (80 mM), K-gluconate (50 mM), HEPES (10 mM), and EGTA (10 mM), pH 7.4 with KOH. Experimental compounds were diluted into the external solution and applied to the soma of cells by local perfusion from large diameter (20-50 μm) glass micropipettes or from a U-tube applicator.
(§4) For Na^+ and K^+ channel currents, following the determination of the I/V relationship for each cell in control solution, currents were evoked from a holding potential between −65 and −55 mV by stepping every 10 sec to a test potential of either 0 mV for Na^+ or +50 mV for K^+ current for a duration of 35 msec. Peak inward current was measured for Na^+ and sustained current for K^+ channel currents. […] Test compounds were applied until steady-state block was achieved. Data were expressed as percent inhibition of control amplitudes for Na^+ and K^+ channel currents.

[2] = target: T1, L-type calcium channels in A10 cells (Rattus norvegicus, UniProt P22002); assay: L-type Ca2+ channel blocking potency in A10 cells (FLIPR); type: cell-based; details: read-out: FLPA10 IC50
T1 construct: which endogenously expresses L-type calcium channels; host or cells: A10 rat embryonic thoracic aorta smooth muscle cells
Outline: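 Rat A10 aortic smooth-muscle cells endogenously expressing L-type channels were loaded with Oregon Green BAPTA-1 and preincubated with compound for 5 min at 35 °C. Cells were then depolarized with 140 mM KCl buffer. Summed fluorescence above basal over 120 s gave % inhibition versus buffer-treated stimulated wells, with zero influx defined by 1.0×10^−6 M nitrendipine.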

[3] = target: T2, N-type Ca2+ channels in cultured superior cervical ganglion (SCG) neurons (Rattus norvegicus, UniProt Q02294); assay: Calcium current in superior cervical ganglion neurons (whole-cell voltage clamp); type: cell-based; details: for inhibition at 1 µM: read-out: SCG Ca, % blockage at 1 μM; for inhibition at 10 µM: read-out: SCG Ca, % blockage at 10 μM; for IC50: read-out: SCG Ca, IC50
T2 construct: from tissue
Description: as §1, §2, §3
After obtaining a whole-cell recording, Ca^2+ channels were elicited by stepping to test potentials between −40 and +20 mV for 120 msec from the holding potential of −90 mV to determine if the amplitude of the current and clamp control were adequate for evaluation of drug effects. Ca^2+ channel currents were evoked by stepping from a holding potentials between −65 mV and −55 mV to a test potential of +20 mV for 150 msec every 40 seconds. The amplitude of the Ca^2+ channel currents were compared before and during drug application and drug effects expressed as percent inhibition of the amplitude of control currents.

[4] = system: Na+ channels in SCG neurons; assay: Sodium current in superior cervical ganglion neurons (whole-cell voltage clamp); type: cell-based, rat
Description: as §1, §2, §3, §4

T1 sequence (P22002 whole entry): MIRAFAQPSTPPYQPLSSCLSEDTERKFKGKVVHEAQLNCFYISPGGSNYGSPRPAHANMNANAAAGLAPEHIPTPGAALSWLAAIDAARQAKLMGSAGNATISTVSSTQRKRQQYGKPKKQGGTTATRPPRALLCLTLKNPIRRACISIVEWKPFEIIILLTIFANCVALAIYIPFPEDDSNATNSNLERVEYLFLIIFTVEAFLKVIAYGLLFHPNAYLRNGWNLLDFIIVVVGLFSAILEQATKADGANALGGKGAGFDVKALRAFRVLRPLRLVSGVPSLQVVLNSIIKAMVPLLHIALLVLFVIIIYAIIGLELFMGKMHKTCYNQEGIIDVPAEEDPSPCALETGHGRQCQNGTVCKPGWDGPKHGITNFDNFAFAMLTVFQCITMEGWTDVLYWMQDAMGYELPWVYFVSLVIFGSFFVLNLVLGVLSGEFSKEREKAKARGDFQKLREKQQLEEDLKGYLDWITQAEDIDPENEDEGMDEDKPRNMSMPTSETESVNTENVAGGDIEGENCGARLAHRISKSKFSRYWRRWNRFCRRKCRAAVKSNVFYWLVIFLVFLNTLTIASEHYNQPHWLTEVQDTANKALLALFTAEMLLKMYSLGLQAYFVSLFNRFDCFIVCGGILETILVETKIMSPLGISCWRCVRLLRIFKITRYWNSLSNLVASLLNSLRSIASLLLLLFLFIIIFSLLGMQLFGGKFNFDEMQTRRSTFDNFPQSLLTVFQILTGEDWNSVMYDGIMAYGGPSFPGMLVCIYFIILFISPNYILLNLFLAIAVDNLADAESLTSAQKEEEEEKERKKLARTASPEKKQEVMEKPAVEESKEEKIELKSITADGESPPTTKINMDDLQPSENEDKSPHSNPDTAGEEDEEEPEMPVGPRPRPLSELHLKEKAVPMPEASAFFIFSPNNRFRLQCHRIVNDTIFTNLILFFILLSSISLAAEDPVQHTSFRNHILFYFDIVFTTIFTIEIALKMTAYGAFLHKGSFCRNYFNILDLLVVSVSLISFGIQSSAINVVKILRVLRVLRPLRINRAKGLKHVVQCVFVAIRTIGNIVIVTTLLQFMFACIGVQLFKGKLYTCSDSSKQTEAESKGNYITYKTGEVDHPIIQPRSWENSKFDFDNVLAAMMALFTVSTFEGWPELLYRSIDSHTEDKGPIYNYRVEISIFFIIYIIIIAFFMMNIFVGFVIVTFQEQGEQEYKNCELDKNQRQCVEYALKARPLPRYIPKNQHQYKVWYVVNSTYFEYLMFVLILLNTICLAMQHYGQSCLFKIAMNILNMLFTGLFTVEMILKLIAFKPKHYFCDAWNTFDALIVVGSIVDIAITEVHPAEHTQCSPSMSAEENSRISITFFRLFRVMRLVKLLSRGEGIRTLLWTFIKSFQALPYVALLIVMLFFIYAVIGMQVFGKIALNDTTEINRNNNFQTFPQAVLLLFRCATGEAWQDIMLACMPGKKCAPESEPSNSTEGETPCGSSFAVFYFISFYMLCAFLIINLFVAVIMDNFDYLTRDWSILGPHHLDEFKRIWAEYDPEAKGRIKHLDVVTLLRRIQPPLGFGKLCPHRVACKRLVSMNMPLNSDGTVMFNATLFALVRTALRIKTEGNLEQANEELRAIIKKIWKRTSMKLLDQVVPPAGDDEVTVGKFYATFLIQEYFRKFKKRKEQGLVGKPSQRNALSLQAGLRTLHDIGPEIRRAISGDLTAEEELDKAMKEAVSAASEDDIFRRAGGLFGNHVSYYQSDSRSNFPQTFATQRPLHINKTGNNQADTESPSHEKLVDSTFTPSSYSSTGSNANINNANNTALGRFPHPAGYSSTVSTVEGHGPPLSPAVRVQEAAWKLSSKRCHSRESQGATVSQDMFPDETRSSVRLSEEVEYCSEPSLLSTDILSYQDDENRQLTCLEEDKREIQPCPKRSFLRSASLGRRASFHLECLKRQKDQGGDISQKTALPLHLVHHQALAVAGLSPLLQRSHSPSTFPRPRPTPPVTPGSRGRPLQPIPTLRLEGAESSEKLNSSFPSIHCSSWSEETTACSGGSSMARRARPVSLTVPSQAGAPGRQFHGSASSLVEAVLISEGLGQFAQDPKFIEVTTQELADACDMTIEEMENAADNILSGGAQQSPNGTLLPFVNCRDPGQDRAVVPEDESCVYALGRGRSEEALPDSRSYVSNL
T1 sequence (P54290 25-944 partner limits assumed): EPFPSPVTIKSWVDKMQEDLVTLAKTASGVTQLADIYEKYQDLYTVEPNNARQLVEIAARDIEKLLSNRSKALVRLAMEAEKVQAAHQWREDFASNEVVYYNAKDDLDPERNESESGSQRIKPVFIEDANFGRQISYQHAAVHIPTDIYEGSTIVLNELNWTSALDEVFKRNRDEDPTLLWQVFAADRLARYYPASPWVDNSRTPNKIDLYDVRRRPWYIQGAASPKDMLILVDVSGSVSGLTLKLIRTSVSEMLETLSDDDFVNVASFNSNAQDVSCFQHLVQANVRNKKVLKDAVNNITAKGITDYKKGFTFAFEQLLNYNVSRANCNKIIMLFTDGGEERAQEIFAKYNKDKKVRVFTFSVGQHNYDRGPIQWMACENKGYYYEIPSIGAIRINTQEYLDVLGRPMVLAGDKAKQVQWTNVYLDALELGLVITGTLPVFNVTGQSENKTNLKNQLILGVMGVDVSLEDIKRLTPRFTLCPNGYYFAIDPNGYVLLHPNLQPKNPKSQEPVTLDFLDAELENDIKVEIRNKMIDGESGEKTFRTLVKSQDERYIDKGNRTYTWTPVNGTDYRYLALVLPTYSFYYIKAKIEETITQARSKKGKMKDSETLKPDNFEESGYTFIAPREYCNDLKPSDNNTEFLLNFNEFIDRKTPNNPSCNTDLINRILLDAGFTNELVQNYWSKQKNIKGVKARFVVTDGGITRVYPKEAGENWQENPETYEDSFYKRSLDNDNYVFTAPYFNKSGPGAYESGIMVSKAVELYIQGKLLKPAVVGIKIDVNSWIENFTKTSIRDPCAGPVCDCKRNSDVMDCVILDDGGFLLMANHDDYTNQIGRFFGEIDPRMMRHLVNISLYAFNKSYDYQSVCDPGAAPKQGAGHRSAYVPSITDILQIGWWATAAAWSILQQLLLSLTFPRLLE
T1 sequence (P54290 945-1091 partner limits assumed): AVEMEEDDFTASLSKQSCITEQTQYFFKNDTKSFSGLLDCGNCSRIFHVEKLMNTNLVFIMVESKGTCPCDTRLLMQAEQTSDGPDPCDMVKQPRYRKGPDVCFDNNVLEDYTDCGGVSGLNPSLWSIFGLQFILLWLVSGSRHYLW
T1 sequence (P54287 whole entry partner): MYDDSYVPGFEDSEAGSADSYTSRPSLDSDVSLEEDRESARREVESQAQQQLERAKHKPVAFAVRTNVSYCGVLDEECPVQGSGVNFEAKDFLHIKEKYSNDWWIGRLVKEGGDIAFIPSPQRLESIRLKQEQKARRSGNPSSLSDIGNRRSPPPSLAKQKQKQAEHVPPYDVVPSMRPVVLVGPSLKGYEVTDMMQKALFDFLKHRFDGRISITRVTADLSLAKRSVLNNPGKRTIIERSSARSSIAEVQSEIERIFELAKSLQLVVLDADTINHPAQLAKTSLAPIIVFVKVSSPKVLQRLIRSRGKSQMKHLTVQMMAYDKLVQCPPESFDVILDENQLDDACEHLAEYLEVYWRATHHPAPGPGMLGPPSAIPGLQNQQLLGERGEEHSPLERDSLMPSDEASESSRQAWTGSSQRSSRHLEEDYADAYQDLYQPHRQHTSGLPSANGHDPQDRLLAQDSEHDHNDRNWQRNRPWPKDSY

## CC(C)C[C@H](N)C(=O)NCCCC(c1ccc(F)cc1)c1ccc(F)cc1 [Example 7, (S)-2-Amino-4-methyl-pentanoic acid [4,4-bis-(4-fluoro-phenyl)-butyl]-amide monohydrochloride]
[1]
  SCG K, % blockage at 10 μM: 90% @ 10
[2]
  IC50: 280 nM
[3]
  inhibition at 1 µM: 45%
  inhibition at 10 µM: 98%

## CC(C)C[C@H](NCC1CCCCC1)C(=O)NCCCC(c1ccc(F)cc1)c1ccc(F)cc1 [Example 8, (S)-2-(Cyclohexylmethyl-amino)-4-methyl-pentanoic acid [4,4-bis-(4-fluoro-phenyl)-butyl]-amide monohydrochloride]
[4]
  SCG Na, % blockage at 10 μM: 94% @ 10
[1]
  SCG K, % blockage at 10 μM: 50% @ 10
[2]
  IC50: 450 nM
[3]
  IC50: 2400 nM

## CC(C)=CCN[C@@H](CC(C)C)C(=O)NCCCC(c1ccc(F)cc1)c1ccc(F)cc1 [Example 9, (S)-4-Methyl-2-(3-methyl-but-2-enylamino)-pentanoic acid [4,4-bis-(4-fluoro-phenyl)-butyl]-amide monohydrochloride]
[4]
  IC50: 8500 nM
[1]
  IC50: 9100 nM
[2]
  IC50: 390 nM
[3]
  IC50: 53000 nM

## CN[C@@H](CC(C)C)C(=O)NCCCC(c1ccc(F)cc1)c1ccc(F)cc1 [Example 12, (S)-4-Methyl-2-methylamino-pentanoic acid [4,4-bis-(4-fluoro-phenyl)-butyl]-amide monohydrochloride]
[4]
  SCG Na, % blockage at 10 μM: 87% @ 10
[1]
  SCG K, % blockage at 1 μM: 15% @ 1
  SCG K, % blockage at 10 μM: 58% @ 10
[2]
  IC50: 600 nM
[3]
  inhibition at 1 µM: 3%
  inhibition at 10 µM: 94%

## CC(C)C[C@@H](C(=O)NCCCC(c1ccc(F)cc1)c1ccc(F)cc1)N(C)Cc1ccc(C(C)(C)C)cc1.Cl [Example 14, (S)-2-[(4-tert-Butyl-benzyl)-methyl-amino]-4-methyl-pentanoic acid [4,4-bis-(4-fluoro-phenyl)-butyl]-amide monohydrochloride]
[1]
  SCG K, % blockage at 10 μM: −1% @ 10
[2]
  IC50: > 3000 nM
[3]
  inhibition at 10 µM: 8%

## CC(C)CCN(C)[C@@H](CC(C)C)C(=O)NCCCC(c1ccc(F)cc1)c1ccc(F)cc1 [Example 28, (S)-4-Methyl-2-[methyl-(3-methyl-butyl)-amino]-pentanoic acid [4,4-bis-(4-fluoro-phenyl)-butyl]-amide monohydrochloride]
[4]; at 1 μM
  SCG Na, % blockage at 1 μM: 5% @ 1
[4]
  SCG Na, % blockage at 10 μM: 90% @ 10
[1]
  SCG K, % blockage at 1 μM: 3% @ 1
  SCG K, % blockage at 10 μM: 47% @ 10
[2]
  IC50: 290 nM
[3]
  inhibition at 1 µM: 55%
  inhibition at 10 µM: 88%

## CC(C)C[C@H](NC(=O)N1CCCCCC1)C(=O)N1CCN(C(c2ccc(F)cc2)c2ccc(F)cc2)CC1 [Example 31, (S)-Azepane-1-carboxylic acid (1-{4-[bis-(4-fluoro-phenyl)-methyl]-piperazine-1-carbonyl}-3-methyl-butyl)-amide]
[2]
  IC50: 1200 nM
[3]
  inhibition at 1 µM: 2.5%
  inhibition at 10 µM: 62%

## CC(C)[C@H](NC(=O)N1CCCCCC1)C(=O)N1CCN(C(c2ccc(F)cc2)c2ccc(F)cc2)CC1 [Example 33, (S)-Azepane-1-carboxylic acid (1-{4-[bis-(4-fluoro-phenyl)-methyl]-piperazine-1-carbonyl}-2-methyl-propyl)-amide]
[4]
  SCG Na, % blockage at 10 μM: 22% @ 10
[1]
  SCG K, % blockage at 10 μM: 39% @ 10
[2]
  IC50: 360 nM
[3]
  inhibition at 1 µM: 18%
  inhibition at 10 µM: 72%

## CC(C)C[C@@H](CN1CCN(C(c2ccc(F)cc2)c2ccc(F)cc2)CC1)NC(=O)N1CCCCCC1 [Example 36, (S)-Azepane-1-carboxylic acid (1-{4-[bis-(4-fluoro-phenyl)-methyl]-piperazin-1-ylmethyl}-3-methyl-butyl)-amide]
[4]
  SCG Na, % blockage at 10 μM: 81% @ 10
[1]
  SCG K, % blockage at 10 μM: 27% @ 10
[2]
  IC50: 270 nM
[3]
  inhibition at 1 µM: 18%
  inhibition at 10 µM: 81%

## CC(C)C[C@@H](C(=O)N1CCN(C(c2ccc(F)cc2)c2ccc(F)cc2)CC1)N(C)C [Example 39, (S)-1-{4-[Bis-(4-fluoro-phenyl)-methyl]-piperazin-1-yl}-2-dimethylamino-4-methyl-pentan-1-one dihydrochloride]
[1]
  SCG K, % blockage at 1 μM: 6% @ 1
[2]
  IC50: 890 nM
[3]
  inhibition at 1 µM: 15%
  inhibition at 10 µM: 75%

Reference: patent US6458781B1, “Substituted diarylalkyl amides as calcium channel antagonists” (priority 1998, dated 2002)
